Source: patent US9713613B2, “Methods and compositions for the treatment of cancer and related hyperproliferative disorders” (priority 2007, dated 2017)

Legend:
mice (129Sv background) = assay: mice, two-week treatment, normal diet; format: in vivo, mouse; conditions: two weeks
Description: Food intake was similar between both groups (3.8 and 3.5 g/mouse/day for treated and control mice, respectively).
In the second protocol, two groups of male mice (n=5) were treated daily for two weeks with either 30 mg/kg fatostatin A or 10% DMSO in PBS. Food intake and body weight were measured daily. At the end of the experiments, the mice were briefly fasted for 4-5 hrs, and their blood was withdrawn for determination of serum constituents. The mice were then sacrificed, and their livers were quickly removed and ground to powder in liquid nitrogen. The powdered tissues were suspended in 10 ml of PBS containing 0.1 mM PMSF, 5 mM benzamidine, and 5 mg/mL protease inhibitor cocktail (Roche), homogenized using Polytron (3×30 Sec, at a high speed), and sonicated briefly to degrade DNA. The extracts were clarified by centrifugation at 16,000×g for 20 min. The samples were then subjected to western blot analysis using commercially available antibodies against FAS and SREBP-1. FAS and ACC activities were determined as described earlier (Mao et al., 2006).

SREBP-1 = assay: Western blot of SREBP-1 processing in DU145 cells; format: cell-based, human; conditions: 6 hrs, IGF1
Description: To examine whether fatostatin A affects the proteolytic activation of SREBPs, whole cell lysates of DU145 cells treated with fatostatin A were analyzed by western blots with an antibody against the NH2 terminus of SREBP-1 (FIG. 3A). […] Similar results were obtained for SREBP-2 with an antibody against its COOH terminus (FIG. 3B).
DU145 prostate cancer cells were seeded on a 6-well plate at a density of 2×10^5 cells/well in a serum-free MEM incubated at 37° C. for overnight. The cells were then treated with DMSO or fatostatin A ([…]) in presence of IGF1 (1 μg/mL). After 6 hrs of incubation, the cells were harvested in PBS and lysated in an SDS buffer. The samples were separated on a 10% SDS-PAGE gel and blotted by using rabbit anti-SREBP-1 and anti-SREBP-2 antibodies. The specific bands were visualized by using enhanced chemiluminescent (ECL) detection reagents (Amersham).

MOLT-4 cells = assay: MOLT-4 cell growth, MTT assay; format: cell-based, human; conditions: 48 hours
Description: (§1) 10,000 MOLT-4 cells (FIGS. 35A-35C) and 20,000 RPM18226 cells (FIGS. 35D-35F) were seeded onto 96 well plate in RPMI 1640 medium containing 5% FBS or fat-free charcoal treated serum (FF-FBS) for 24 hours at 37 C. MOLT-4 and RPM18226 cells were treated for additional 48 hours with different concentrations of compound 19 (None control without DMSO, Vehicle with DMSO, 1, 2, 5, 10 and 20 μM in DMSO; RPM18226 cells also were treated with 3 μM in DMSO). At the end of 48 hours cells were subjected to MTT assay to determine viability. Values are depicted as means±SD; *P<0.05.
(§2) 20,000 MOLT-4 cells (FIGS. 36A-36C) and 20,000 RPM18226 cells (FIGS. 36D-36F) cells were seeded onto 96 well plates in RPMI 1640 Medium containing 5% Fetal bovine serum (FBS) or 5% fat free charcoal treated serum (FF-FBS) for 24 hours at 37 C. Cells then were treated for additional 48 hours with different concentrations of compound 17 (None control without DMSO, Vehicle with DMSO, 1, 2, 3, 5, 10 and 20 μM in DMSO). At the end of the 48 hours treatment cells were subjected to MTT assay to determine viability. Values are depicted as means±SD (n=3); **P<0.001; ***P<0.0001.
MOLT-4 cells were grown at two different conditions under 5% fetal bovine serum (FBS) and under 5% FBS fat free serum (charcoal treated serum). 10,000 Cells were seeded a 96 well plate for 24 hours before starting the treatment with different concentrations of compound 19. Compound 19 dissolved in DMSO was added to cells for 48 hours before determining cell growth using MTT assay. […] Compound 19 inhibited cell growth about 75-80% at 10 and 20 μM under both growth conditions.
MOLT-4 cells were grown at two different conditions under 5% fetal bovine serum (FBS) and under 5% FBS fat free serum (charcoal treated serum). 20,000 cells were seeded into a 96 well plate for 24 hours before starting the treatment with different concentrations of compound 17. Compound 17 dissolved in DMSO was added to cells for 48 hours before determining cell growth using MTT assay. […] Compound 17 inhibited cell growth about 85-100% at 5, 10 and 20 μM under both growth conditions. Under both 5% FBS and 5% FBS fat free sera there was a strong trend of inhibition starting at 1 μM (FIGS. 36B-36C).

RPMI8226 cells = assay: RPMI8226 cell growth, MTT assay; format: cell-based, human; conditions: 5 μM, 48 hours
Description: as §1, §2
RPM18226 cells were grown under the same conditions as the MOLT-4 cells. 20,000 cells were seeded into 96 well plates for 24 hrs prior to treatment with increasing concentrations of compound 19 as described for MOLT-4 cells. […]

SMILES	loss of body weight (mice (129Sv background); 30 mg/kg daily, normal diet, control no change) [%]	decrease of FAS activity and its protein level in liver (mice (129Sv background); 30 mg/kg daily)	food intake (mice (129Sv background); control 3.5) [g/mouse/day]	amounts of mature and precursor forms of SREBP-1 (western blot) (SREBP-1)	growth inhibition (MOLT-4 cells; 2 and 5 μM, FBS fat free serum)	inhibition of cell growth (MOLT-4 cells; 10 and 20 μM, 5% FBS and 5% FBS fat free)	growth inhibition in 5% FF FBS relative to 5% FBS (RPMI8226 cells)
CCCc1cc(-c2nc(-c3ccc(C)cc3)cs2)ccn1 [Compound 1, 2-propyl-4-(4-p-tolylthiazol-2-yl)pyridine]	10	about 30%	3.8	decreased the amounts of the 68 KDa mature form of SREBP-1 in a dose-dependent manner			
CCCc1cc(-c2nc(-c3ccc(NS(C)(=O)=O)cc3)cs2)ccn1 [Compound 19, N-(4-(2-(2-propylpyridin-4-yl)thiazol-4-yl)phenyl)methanesulfonamide]					30-50%	75-80%	about 1.5
